Source: patent US5214047A, “Tetracyclic quinazoline derivatives, effective as antiarrythmic agents” (priority 1987, dated 1993)
Counter-ions that a name gives are not always drawn. Like-named read-outs stand apart in the source and are kept apart here.

Tested on: QT interval
Assay: QT interval prolongation (ECG, class III action) in anesthetized guinea pigs
Type: in vivo, Pirbright white guinea pigs
Details: for ED (20%): Cavia porcellus, read-out: Prolongation of the QT interval ED20%; for Potency relative to that of d-sotalol = 1.0: QT prolongation, ED20%
Description: The action of the novel substances has been tested as follows:
The experimental animals used were male and female Pirbright white guinea pigs weighing 300-500 g. 1.5 g/kg urethane i.p. were used for anesthesia. The substances were administered intravenously. The extremity lead II was recorded to measure the ECG conduction times and the heart rate. The measured variables were the QT and PQ intervals and the heart rate. 4-6 animals were used for each dose. The criterion for a class III action was an increase in the QT interval compared with the values before administration of the substance. A PQ increase and a large decrease in the heart rate were used as exclusion criteria. The ED20% is calculated from the linear relation between log dose (mg/kg) of the substance and the relative prolongation of the QT interval (Δ%).

[1] = guinea pigs, urethane anesthesia, intravenous, dose for 20% QT prolongation calculated from log dose (mg/kg) vs relative QT prolongation

| SMILES | ED (20%) [1] | Potency relative to that of d-sotalol = 1.0 (guinea pigs, intravenous) | ED (20%) (iv) |
| --- | --- | --- | --- |
| O=[N+]([O-])c1ccc(C23CCCN2c2ccccc2C2=NCCCN23)cc1 (centres unmarked) [Example 34, 2,3,5,6,7,8-Hexahydro-6-(4-nitrophenyl)-2H-pyrimido[1,2-c]pyrrolo[1,2-a]quinazoline] | 0.61 mg/kg | 6.0 | – |
| c1ccc(C23CCCN2c2ccccc2C2=NCCCN23)cc1 (centres unmarked) [Example 49, 2,3,5,6,7,8-Hexahydro-6-phenyl-2H-pyrimido[1,2-c]pyrrolo[1,2-a]quinazoline hydrochloride] | 0.32 mg/kg | 11 | – |
| Cc1ccc(C23CCCN2c2ccccc2C2=NCCN23)cc1 (centres unmarked) [Example 1, 2,3,5,6,7,8-Hexahydro-5-(4-methylphenyl)imidazo[1,2-c]pyrrolo[1,2-a]quinazoline] | 1 mg/kg | 3.6 | – |
| Fc1ccc(C23CCCN2c2ccc(Cl)cc2C2=NCCCN23)cc1 (centres unmarked) [Example 30, 13-Chloro-6-(4-fluorophenyl)-2,3,5,6,7,8-hexahydro-2H-pyrimido[1,2-c]pyrrolo[1,2-a]quinazoline] | 1 mg/kg | 3.6 | – |
| Clc1ccc(C23CCCN2c2ccccc2C2=NCCN23)cc1 (centres unmarked) [Example 2] | – | 3.3 | 1.1 mg/kg |
| c1ccc(C23CCCN2c2ccccc2C2=NC4CCCCC4N23)cc1 (centres unmarked) [Example 22, 2,3,5,6,7,8-Hexahydro-2,3-tetramethylene-5-phenylimidazo[1,2-c]pyrrolo[1,2-a]quinazoline] | – | 6.5 | 0.56 mg/kg |
| CC1CN=C2c3ccccc3N3CCCC3(c3ccccc3)N21 (centres unmarked) [Example 24, hydrochloride] | 0.29 mg/kg | 12 | – |
| CC1(C)CN=C2c3ccccc3N3CCCC3(c3ccccc3)N2C1 (centres unmarked) [Example 41, 2,3,5,6,7,8-Hexahydro-3,3-dimethyl-6-phenyl-2H-pyrimido[1,2-c]pyrrolo[1,2-a]quinazoline hydrochloride] | 0.46 mg/kg | 7.8 | – |
| Clc1ccc(C23CCCN2c2ccccc2C2=NCCN23)s1 (centres unmarked) [Example 19, 5-(2-(5-Chlorothienyl))-2,3,5,6,7,8-hexahydroimidazo[1,2-c]pyrrolo[1,2-a]quinazoline hydrochloride] | 1.4 mg/kg | 2.6 | – |
| CC1(C)CN=C2c3ccccc3N3CCCC3(c3ccccc3)N21 (centres unmarked) [Example 43, 2,3,5,6,7,8-Hexahydro-3,3-dimethyl-5-phenylimidazo[1,2-c]pyrrolo[1,2-a]quinazoline hydrochloride] | 0.6 mg/kg | 6.1 | – |
| Clc1ccc2c(c1)N1CCCC1(c1ccccc1)N1CCN=C21 (centres unmarked) [Example 11, 11-Chloro-2,3,5,6,7,8-hexahydro-5-phenylimidazo[1,2-c]pyrrolo[1,2-a]quinazoline] | 0.4 mg/kg | 9.0 | – |
| CC1(C)CN=C2c3ccccc3N3CCCC3(c3ccc([N+](=O)[O-])cc3)N21 (centres unmarked) [Example 46, 2,3,5,6,7,8-Hexahydro-3,3-dimethyl-5-(4-nitrophenyl)imidazo[1,2-c]pyrrolo[1,2-a]quinazoline hydrochloride] | 0.55 mg/kg | 6.7 | – |
| Clc1ccc2c(c1)N1CCCC1(c1ccccc1)N1CCCN=C21 (centres unmarked) [Example 37, 12-Chloro-2,3,5,6,7,8-hexahydro-6-phenyl-2H-pyrimido[1,2-c]pyrrolo[1,2-a]quinazoline hydrochloride] | 0.69 mg/kg | 5.3 | – |
| CC1(C)CN=C2c3ccccc3N3CCCC3(c3ccc(F)cc3)N21 (centres unmarked) [Example 45, hydrochloride] | 0.59 mg/kg | 6.2 | – |
| CC1CN=C2c3ccccc3N3CCCC3(c3ccc([N+](=O)[O-])cc3)N21 (centres unmarked) [Example 48, 2,3,5,6,7,8-Hexahydro-3-methyl-5-(4-nitrophenyl)imidazo[1,2-c]pyrrolo[1,2-a]quinazoline hydrochloride] | 0.31 mg/kg | 11.8 | – |
| Fc1ccc(C23CCCN2c2cc(Cl)ccc2C2=NCCN23)cc1 (centres unmarked) [Example 15, 11-Chloro-5-(4-fluorophenyl)-2,3,5,6,7,8-hexahydroimidazo[1,2-c]pyrrolo[1,2-a]quinazoline hydrochloride] | 0.43 mg/kg | 8.5 | – |
| CC(C)NC[C@@H](O)c1ccc(NS(C)(=O)=O)cc1 [d-sotalol, reference compound] | 3.6 mg/kg | – | – |
| Fc1ccc(C23CCCN2c2cc(Cl)ccc2C2=NCCCN23)cc1 (centres unmarked) [Example 38, 2-Chloro-6-(4-fluorophenyl)-2,3,5,6,7,8-hexahydro-2H-pyrimido[1,2-c]pyrrolo[1,2-a]quinazoline hydrochloride] | 0.83 mg/kg | 4.4 | – |
| CC1(C)CN=C2c3ccccc3N3CCCC3(c3ccc([N+](=O)[O-])cc3)N2C1 (centres unmarked) [Example 42, 2,3,5,6,7,8-Hexahydro-3,3-dimethyl-6-(4-nitrophenyl)-2H-pyrimido[1,2-c]pyrrolo[1,2-a]quinazoline hydrochloride] | 0.78 mg/kg | 4.7 | – |
| Clc1ccc(C23CCCN2c2ccccc2C2=NCCCN23)cc1 (centres unmarked) [Example 26, 6-(4-Chlorophenyl)-2,3,6,7,8,9-hexahydro-2H-pyrimido[1,2-c]pyrrolo[1,2-a]quinazoline] | 1.5 mg/kg | 2.4 | – |
| Clc1ccc2c(c1)C1=NCCCN1C1(c3ccccc3)CCCN21 (centres unmarked) [Example 29, 13-Chloro-2,3,5,6,7,8-hexahydro-6-phenyl-2H-pyrimido[1,2-c]pyrrolo[1,2-a]quinazoline hydrochloride] | 0.55 mg/kg | 6.6 | – |
| Clc1ccc(C23CCCN2c2ccccc2C2=NCCCN23)cc1Cl (centres unmarked) [Example 28, 6-(3,4-Dichlorophenyl)-2,3,5,6,7,8-hexahydro-2H-pyrimido[1,2-c]pyrrolo[1,2-a]quinazoline] | 0.94 mg/kg | 3.9 | – |
| CS(=O)(=O)Oc1ccc(C23CCCN2c2ccccc2C2=NCCN23)cc1 (centres unmarked) [Example 53, hydrochloride] | 1 mg/kg | 3.6 | – |
| Clc1ccc(C23CCCN2c2ccccc2C2=NCCN23)c(Cl)c1 (centres unmarked) [Example 13, 5-(2,4-Dichlorophenyl)-2,3,5,6,7,8-hexahydroimidazo[1,2-c]pyrrolo[1,2-a]quinazoline hydrochloride] | 0.99 mg/kg | 3.7 | – |
| CC1(C)CCN=C2c3ccccc3N3CCCC3(c3ccccc3)N21 (centres unmarked) [Example 44, 2,3,5,6,7,8-Hexahydro-4,4-dimethyl-6-phenyl-2H-pyrimido[1,2-c]pyrrolo[1,2-a]quinazoline hydrochloride] | 0.49 mg/kg | 7.4 | – |
| COc1ccc(C23CCCN2c2ccccc2C2=NCCCN23)cc1 (centres unmarked) [Example 35, 2,3,5,6,7,8-Hexahydro-6-(4-methoxyphenyl)-2H-pyrimido[1,2-c]pyrrolo[1,2-a]quinazoline hydrochloride] | 0.63 mg/kg | 5.7 | – |
| O=[N+]([O-])c1ccc(C23CCCN2c2ccccc2C2=NCCN23)cc1 (centres unmarked) [Example 21, 2,3,5,6,7,8-Hexahydro-5-(4-nitrophenyl)imidazo[1,2-c]pyrrolo[1,2-a]quinazoline hydrochloride] | 0.46 mg/kg | 8.0 | – |
